Measured values: ChEMBL document CHEMBL1151014, “Tetrazole-substituted ureas as inhibitors of acyl-CoA:cholesterol O-acyltransferase (ACAT). A novel preparation of ureas from weakly nucleophilic amines” (Bioorg Med Chem Lett, 1996)
One block for each compound: values may come before it.

Experiments:
[1] = biological target: T1, Sterol O-acyltransferase 1 (Rattus norvegicus, UniProt O70536); assay: Liver ACAT inhibitory activity was determined in vitro using [1-14C]oleolyl-CoA and microsomes isolated from the livers of cholesterol fed rats; set-up: species or system Microsome
T1 sequence (O70536 whole entry): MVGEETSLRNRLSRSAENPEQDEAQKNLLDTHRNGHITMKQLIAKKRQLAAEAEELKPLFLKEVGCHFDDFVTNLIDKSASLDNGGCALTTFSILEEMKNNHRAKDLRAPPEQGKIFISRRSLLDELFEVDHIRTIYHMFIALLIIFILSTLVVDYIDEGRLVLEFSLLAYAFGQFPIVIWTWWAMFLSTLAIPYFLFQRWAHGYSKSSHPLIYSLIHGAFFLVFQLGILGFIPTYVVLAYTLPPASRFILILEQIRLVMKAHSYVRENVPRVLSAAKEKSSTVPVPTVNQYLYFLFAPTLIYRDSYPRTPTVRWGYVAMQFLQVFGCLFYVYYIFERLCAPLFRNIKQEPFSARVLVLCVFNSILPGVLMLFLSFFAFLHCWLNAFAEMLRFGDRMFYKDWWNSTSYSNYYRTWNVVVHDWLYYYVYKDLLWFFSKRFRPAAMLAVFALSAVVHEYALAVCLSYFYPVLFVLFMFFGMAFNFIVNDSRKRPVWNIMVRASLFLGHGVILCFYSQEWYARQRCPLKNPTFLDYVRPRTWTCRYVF

Rattus norvegicus = assay: Total serum cholesterol level was measured in rats after administering single high-fat, high cholesterol meal; format: functional
[2] = biological target: T1, Sterol O-acyltransferase 1; assay: Liver Acyl coenzyme A:cholesterol acyltransferase inhibitory activity was determined in vitro using [1-14C]oleolyl-CoA and microsomes isolated from the livers of cholesterol fed rats; set-up: species or system Microsome
[3] = biological target: T2, Sterol O-acyltransferase 1 (Mus musculus, UniProt Q61263); assay: Compound was tested for its ability to penetrate the cell wall and inhibit macrophage ACAT in cell culture using murine IC-21 macrophages (MAI); format: functional
T2 sequence (Q61263 whole entry): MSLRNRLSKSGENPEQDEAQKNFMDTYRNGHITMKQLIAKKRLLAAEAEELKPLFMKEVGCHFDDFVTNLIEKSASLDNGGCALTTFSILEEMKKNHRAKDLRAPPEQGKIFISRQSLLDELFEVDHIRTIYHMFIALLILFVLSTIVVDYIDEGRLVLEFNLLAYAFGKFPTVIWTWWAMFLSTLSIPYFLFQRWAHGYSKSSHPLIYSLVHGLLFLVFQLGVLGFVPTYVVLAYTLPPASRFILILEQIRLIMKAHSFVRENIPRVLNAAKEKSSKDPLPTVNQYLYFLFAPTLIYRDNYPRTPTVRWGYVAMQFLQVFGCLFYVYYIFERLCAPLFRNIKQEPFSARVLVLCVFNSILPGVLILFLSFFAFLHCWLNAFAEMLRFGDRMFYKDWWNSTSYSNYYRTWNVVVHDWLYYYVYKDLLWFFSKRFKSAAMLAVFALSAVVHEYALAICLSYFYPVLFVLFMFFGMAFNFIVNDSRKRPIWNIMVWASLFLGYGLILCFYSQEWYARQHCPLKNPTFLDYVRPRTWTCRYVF

Oryctolagus cuniculus [4] = assay: Compound was tested for systemic bioactivity in plasma, drawn four hours post dose from cholesterol -fed rabbit, with rat liver microsomes (ABIO) at a dose of 22 mg/kg; format: functional; conditions: 4 h
Oryctolagus cuniculus [5] = assay: Compound was tested for systemic bioactivity in plasma, drawn four hours post dose from cholesterol -fed rabbit, with rat liver microsomes (ABIO) at a dose of 24 mg/kg; format: functional; conditions: 4 h
[6] = biological target: T2, Sterol O-acyltransferase 1; assay: Compound was tested for its ability to penetrate the cell wall and inhibit macrophage ACAT in cell culture using murine IC-21 macrophages (MAI) at 0.1 uM; not active; format: functional
Oryctolagus cuniculus [7] = assay: Compound was tested for percent change in total serum cholesterol relative to progression control in an injured cholesterol-fed rabbit (ICFR) model at a dose of 5 mg/kg; format: functional
Oryctolagus cuniculus [8] = assay: Anti-atherosclerosis activity was determined by measuring the thoracic aortic lesion coverage in an injured cholesterol-fed rabbit (ICFR) model at a dose of 25 mg/kg; format: functional, Aorta
Oryctolagus cuniculus [9] = assay: Anti-atherosclerosis activity was determined by measuring the thoracic aortic lesion coverage in an injured cholesterol-fed rabbit (ICFR) model at a dose of 5 mg/kg; format: functional, Aorta
Oryctolagus cuniculus [10] = assay: Compound was tested for percent change in total serum cholesterol relative to progression control in an injured cholesterol-fed rabbit (ICFR) model at a dose of 25 mg/kg; format: functional
Oryctolagus cuniculus [11] = assay: Compound was tested for percent change in plasma triglycerides relative to progression control in an injured cholesterol-fed rabbit (ICFR) model at a dose of 25 mg/kg(p<0.10); format: functional
Oryctolagus cuniculus [12] = assay: Compound was tested for percent change in plasma triglycerides relative to progression control in an injured cholesterol-fed rabbit (ICFR) model at a dose of 5 mg/kg; format: functional
Oryctolagus cuniculus [13] = assay: Compound was tested for systemic bioactivity in plasma, drawn four hours post dose from cholesterol -fed rabbit, with rat liver microsomes (ABIO) at a dose of 25 mg/kg; format: functional; conditions: 4 h
Oryctolagus cuniculus [14] = assay: Compound was tested for systemic bioactivity in plasma, drawn four hours post dose from cholesterol -fed rabbit, with rat liver microsomes (ABIO) at a dose of 5 mg/kg; format: functional; conditions: 4 h
Oryctolagus cuniculus [15] = assay: Compound was tested for percent change in plasma triglycerides relative to progression control in an injured cholesterol-fed rabbit (ICFR) model at a dose of 25 mg/kg; format: functional
Oryctolagus cuniculus [16] = assay: Anti-atherosclerosis activity was determined by measuring the thoracic aortic lesion coverage in an injured cholesterol-fed rabbit (ICFR) at a dose of 25 mg/kg; format: functional, Aorta

Compound: CC(C)c1cccc(C(C)C)c1NC(=O)N(c1ccccc1)c1nnn(CCCCCCCCOC2CCCCO2)n1 (stereo not drawn)
IC50 [2]: 16 nM
Delta TC (Rattus norvegicus): 42%

Compound: COc1cc(OC)c(NC(=O)N(c2ccccc2)c2nnn(CCCCCCCCOC3CCCCO3)n2)c(OC)c1 (stereo not drawn)
IC50 [2]: 41 nM
Delta TC (Rattus norvegicus): -50%

Compound: CCCCCCCCCCCCn1nnc(N(C(=O)Nc2c(C(C)C)cccc2C(C)C)C2CCCCC2)n1
IC50 [2]: 31 nM
IC50 [3]: 3100 nM
inhibition in vivo at 24 mg/kg (Oryctolagus cuniculus [5]): 77%
Delta TC (Rattus norvegicus): 10%

Compound: CCCCCCCCCCCCn1nnc(N(C(=O)Nc2c(C(C)C)cccc2C(C)C)c2ccccc2)n1
IC50 [3]: 240 nM
inhibition in vivo at 22 mg/kg (Oryctolagus cuniculus [4]): 79%
Delta TC (Rattus norvegicus): 52%

Compound: CCCCCCCCCCC(C)(C)C(=O)Nc1c(OC)cc(OC)cc1OC [CL-976]
Delta TG (Oryctolagus cuniculus [15]): -7%
Lesion coverage (Oryctolagus cuniculus [16]): 39%
Delta TC (Oryctolagus cuniculus [10]): -24%
inhibition in vivo at 25 mg/kg (Oryctolagus cuniculus [13]): 73%

Second part, led by results:

IC50 [1]: 450 nM
Compound: CCCCCn1nnc(N(C(=O)Nc2c(OC)cc(OC)cc2OC)c2ccccc2)n1
Delta TC (Rattus norvegicus): -43%

IC50 [2]: 40 nM
Compound: COc1cc(OC)c(NC(=O)N(c2ccccc2)c2nnn(CCCCCCCCCC(C)C)n2)c(OC)c1

IC50 [2]: 290 nM
Compound: CCCCCCCCCCCCn1nnc(N(CCCCCCC)C(=O)Nc2c(OC)cc(OC)cc2OC)n1
Delta TC (Rattus norvegicus): -20%

IC50 [2]: 71 nM
Compound: CCCCCCCCCCCCCCn1nnc(N(C(=O)Nc2c(OC)cc(OC)cc2OC)c2ccccc2)n1
Delta TC (Rattus norvegicus): -22%

IC50 [2]: 35 nM
Compound: CCCCCCCCCCCCn1nnc(N(Cc2ccccc2)C(=O)Nc2c(OC)cc(OC)cc2OC)n1

IC50 [1]: 61 nM
IC50 [3]: 890 nM
Compound: CCCCCCCCCCCCn1nnc(N(C(=O)Nc2c(OC)cc(OC)cc2OC)c2ccccc2)n1
inhibition in vivo at 22 mg/kg (Oryctolagus cuniculus [4]): 58%
Delta TC (Rattus norvegicus): 74%

IC50 [1]: 57 nM
IC50 [6]: Not Active
Compound: CCCCCCCCCCCCn1nnc(N(C(=O)Nc2c(OC)cc(OC)cc2OC)C2CCCCC2)n1
Delta TC (Oryctolagus cuniculus [7]): 22%
Lesion coverage (Oryctolagus cuniculus [8]): 44%
Lesion coverage (Oryctolagus cuniculus [9]): 49%
Delta TC (Oryctolagus cuniculus [10]): 21%
Delta TG (Oryctolagus cuniculus [11]): 68%
Delta TG (Oryctolagus cuniculus [12]): 4%
inhibition in vivo at 25 mg/kg (Oryctolagus cuniculus [13]): 58%
inhibition in vivo at 5 mg/kg (Oryctolagus cuniculus [14]): 0%
Delta TC (Rattus norvegicus): 67%
